Patent US8236985B2, “Compounds and uses thereof” (Imperial Innovations Ltd., priority 2006, dated 2012)
Read-outs that look alike come from different tables or passages of the source.

Assays:
[1] = test system: MCF-7 cells; assay: Sulforhodamine B (SRB) cell growth inhibition assay; assay type: cell-based, human; conditions: N=5-6
Procedure: Stock cultures of MCF-7 and MDA-MB-231 human breast cancer cell lines (American Type Culture Collection, Rockville, Md.) are grown in Dulbecco's Modified Eagle's Medium (DMEM) containing 10% (v/v) foetal calf serum, 2 mM L-glutamine, 100 units/ml penicillin and 100 μg/ml streptomycin at 37° C. in 5% CO2 humidified atmosphere. Cells are counted in a haemocytometer after detachment using 0.25% (w/v) trypsin in Dulbecco's Phosphate Buffered Saline without Ca^2+ or Mg^2+ (DPBS) (Sigma-Aldrich, Gillingham, UK) containing 0.02% (w/v) EDTA. Viability is determined by Trypan blue exclusion. For each cell line, cells are seeded in 96-well microtitre plates at optimal densities determined in prior experiments to ensure exponential growth for the duration of the assay. […] After 48 hour incubation, cell proliferation is determined using the sulforhodamine B colorimetric assay described by Skehan et al. (1990) J. Natl. Cancer Inst. 82, 1107-1112. Briefly, 100 μl of ice cold 40% (w/v) trichloroacetic acid is added to each well and incubated for 1 hour at 4° C. The plate is then rinsed gently with five changes of tap water. To each well is then added 100 μl of 0.4% (w/v) sulforhodamine B in 1% (v/v) acetic acid and incubated for 1 hour at room temperature. The plate is then washed five times with 1% (v/v) acetic acid and allowed to air dry overnight. Bound dye is then solubilised by addition of 100 μl of 10 mM Tris base to each well followed by incubation on a vibrating plate shaker for 30 minutes. Absorbance at 492 nm is then measured on a microtitre plate reader and the results expressed as the mean ±SE for 6 replicates as a % of vehicle control (taken as 100%). The concentration of each compound of the invention that inhibits cell proliferation by 50% (IC50) is determined graphically in each case using non-linear regression analysis to fit inhibition data to the appropriate dose-response curve (GraphPad Prism Version 4.0; GraphPad Software Inc., San Diego, Calif.).
Trichostatin A (TSA) was used as control.

[2] = Intraperitoneal pharmacokinetic studies in vivo; parameters: species or system mouse; conditions: for Number of UV metabolites: 80 mg/kg i.p.
Procedure: Parent compound and phase I metabolites were separated by HPLC and detected with simultaneous UV and positive ion electrospray mass spectrometry. Metabolites were identified by positive ion electrospray tandem mass spectrometry.
C1-A was introduced at 80 mg/kg in DMSO (0.0015 ml/g; 30 μl) intraperitoneally into the mouse.

[3] = test system: MCF7 and MDA-MB-435 human mammary tumour xenografts; assay: Human mammary tumour xenografts in immunodeficient mice; assay type: in vivo, mouse; conditions: 20-40 mg/kg/day i.p. for 2 weeks
[4] = cited from earlier work
[5] = test system: HDAC; conditions: background statement; cited from earlier work
[6] = test system: N-methyl-N-nitrosourea carcinogen-induced rat mammary cancer; conditions: 500 μg/kg/day s.c. for 4 weeks; cited from earlier work
[7] = test system: HDAC; conditions: HPLC fractions tested in vitro; cited from earlier work
[8] = test system: HDAC (HeLa nuclear extract); assay: Fluorometric HDAC inhibition assay using the Fluor de Lys assay kit; assay type: biochemical, human
Procedure: Histone deacetylase inhibition by compounds of the invention is assayed by a commercial fluorescent assay kit (BIOMOL—AK-500). 10 mM stock solutions of compounds of the invention prepared in DMSO are aliquoted and frozen at −20° C. For each assay, a vial of the drug solution is thawed to prepare dilutions of drug in DMSO; the remaining drug is discarded. Working solutions of the assay reagents are prepared according to the manufacturers instructions. For the assay, 10 μl of ×5 concentrations of drug (in triplicate) or HDAC assay buffer is added to 15 μl of dilute HeLa nuclear extract (BIOMOL; D1409) and 25 μl of (2×) Fluor-de-Lys substrate in a micro titre plate (Perkin Elmer # 6005270, Optiplate-96 Black microplate) and thoroughly mixed. […] The reactions are allowed to proceed for 10 min and then stopped by addition of 50 μl of dilute Fluor-de-Lys developer solution. The reaction mixtures are then incubated at room temperature for 15 min and fluorescence is read on a Victor multi-well Fluorescence plate reader at an excitation wavelength of 355 nm and emission wavelength of 460 nm.
To obtain a calibration curve, 50 μl aliquots of deacetylated standards prepared in HDAC assay buffer according to the manufacturer's instructions are mixed with 50 μl of diluted Fluor-de-Lys developer solution and incubated for 10 min at room temperature. The fluorescence is measured as above. A plot of arbitrary fluorescence units (AFU) against deacetylated standard concentration in μM is made. The slope and intercept are determined and used for conversion of inhibitor data AFU into velocity of reaction (V, μM/min). To obtain half-maximal inhibition (EC50), molar concentrations of drug are plotted against V and the EC50 is determined from the sigmoid dose response using the GraphPad Prism software.

[9] = test system: Histone H4 acetylation, pRb and Cyclin D1 in MCF-7 cells; assay: Western blots of acetyl-H4, pRb and cyclin D1; assay type: cell-based, human; conditions: MCF-7 cells treated 24 h; western blot (FIG. 13)
Procedure: MCF-7 cells were treated with drug or vehicle (equivalent concentration of DMSO in growth media) for 24 h. Cells were harvested and homogenised. The respective proteins (acetyl-H4, pRb and cyclin D1) in supernatants of these homogenates were visualised by western blot analysis as previously described (Leyton J. et al., Cancer Res. (2006) 66(15): 7621-9).

[10] = Pharmacokinetic studies in vivo after intravenous injection; parameters: species or system mouse; conditions: 80 mg/kg i.v.
Procedure: C1-A at 80 mg/kg in 10% DMSO, 5% Tween 20 and 85% saline was injected i.v. into the mouse. Plasma samples were deproteinated with two volume equivalents of methanol, then 200 μl was analysed by reversed-phase high pressure liquid chromatography (5 μm C18 column and 10 mM ammonium acetate/acetonitrile gradient) with ultraviolet detection at a wavelength of 351 nm. C1-A was detectable in plasma up to 60 min after i.v. injection.

[11] = test system: HCT116 human colon cancer cells; assay: Efficacy in vivo, HCT116 tumour-bearing mice; parameters: species or system mouse; conditions: 80 mg/ml i.p. daily for 7 days, n=1; for Efficacy in vivo (tumour volume vs vehicle control): HCT116 s.c. tumours
Procedure: The study was carried out at n=1 each for drug- or vehicle-treated mice. HCT116 human colon cancer cells were injected subcutaneously into the back of mice to form tumours.
When the tumours were about ˜125 mm^3, the mice were injected with C1-A at 80 mg/ml or vehicle (10% DMSO, 5% Tween 20 and 85% saline) intraperitoneally daily for 7 days. Tumour sizes were measured every 1-2 days in 3 orthogonal axes by callipers to determine tumour volume.

[12] = MCF-7 cells, first of two independent assays
[13] = MCF-7 cells, second of two independent assays
[14] = first of two independent assay sets, N=3, read-out: Average EC50
[15] = second of two independent assay sets, N=3, read-out: Average EC50

## CC(/C=C/C(=O)NO)=C\[C@@H](C)C(=O)c1ccc(N(C)C)cc1 [TSA, Trichostatin A]
[1]; [12]
  EC50: 75 nM
[1]; [13]
  EC50: 110 nM
[2]; mice, at 20 minutes (FIG. 17 and Sanderson et al, 2004)
  Number of UV metabolites: 17
[2]; FIG. 17
  Metabolism in vivo: rapidly metabolised in vivo
[3]
  Anti-tumour activity: anti-tumour activity
[4]; TSA, at 20 minutes (Sanderson et al, 2004), quoted in Example 10
  Number of UV metabolites: 17
[4]; TSA, at 20 minutes (Sanderson et al, 2004)
  Parent drug remaining: almost no parent drug
[4]; plasma, 80 mg/kg i.p., mice
  Cmax: 40000 ng/mL
  Half-life: 6.3 min
[5]
  Concentrations at which HDAC is inhibited: low nanomolar
[6]
  Anti-tumour activity: potent anti-tumour activity
  Toxicity in vivo: without significant toxicity

## CNc1ccc(C(=O)C(C)C=C(C)C=CC(=O)NO)cc1 (centres unmarked) [N-demethylated TSA metabolite, N-demethylated TSA]
[7]
  HDAC inhibitory potency relative to TSA: equipotent

## Depudecin [reference compound]
[8]; control, read-out: EC50
  EC50: > 10000 nM
[5]
  Concentrations at which HDAC is inhibited: micromolar

## CCN(CC)c1ccc(S(=O)(=O)Nc2ccc(/C=C(C)/C=C/C(=O)NO)cc2)cc1 [Example C1-B, (E,E)-4-methyl-5-{4-[4-(diethylamino)phenyl]sulfonamido}penta-2,4-dienoic acid N-hydroxyamide]
[8]; [14]
  EC50: 320 nM
[8]; [15]
  EC50: 450 nM
[1]; Homo sapiens, MCF7, MCF-7 cells, first of two independent assays
  EC50: 6000 nM
[1]; Homo sapiens, MCF7, MCF-7 cells, second of two independent assays
  EC50: 14000 nM

## (E,E)-4-methyl-5-{4-[4-bis-(2-chloroethylamino)phenyl]-sulfonamido}penta-2,4-dienoic acid N-hydroxyamide [Example C1-A]
[8]; [14]
  EC50: 590 nM
[8]; [15]
  EC50: 310 nM
[1]; [12]
  EC50: 3900 nM
[1]; [13]
  EC50: 6800 nM
[9]
  Concentration at which pRb & cyclin D are inhibited and H4 hyperacetylation is induced, relative to TSA: ≥ 10 × [TSA]
[10]; Balb/c mice (FIG. 14)
  Stability in vivo: stable in vivo
[10]; mouse
  Detection in liver: detectable in the liver at all time points
[10]; mouse, HPLC-UV
  Time up to which compound was detectable in plasma: up to 60 min
[11]
  Toxicity based on measurement of body weight: no toxicity was detectable
  Efficacy in vivo (tumour volume vs vehicle control): Tumour volume was greater in the control than in the C1-A-treated mouse
[11]; listed as C1A
  Efficacy in vivo (tumour volume vs vehicle control): efficacious in vivo
[2]; 80 mg/kg i.p. in DMSO, mouse, HPLC-UV (FIG. 16)
  Stability in vivo: stable in vivo
[2]; mouse, at 60 minutes
  Number of UV metabolites: 5
